Experimental data taken from patent US20100105610A1, “Methods of Inhibiting Tumor Cell Aggressiveness Using the Microenvironment of Human Embryonic Stem Cells” (CHILDREN'S MEMORIAL HOSPITAL, priority 2006, published 2010).

How the values were obtained:
C8161 cells [1] = assay: In vitro proliferation assay (cell count), C8161; assay type: cell-based, human; settings: C8161, relative to MO Control; 4 days after plating 15,000 cells
[2] = tested on: MDA-MB-231 breast carcinoma cells; assay: In vivo tumor cell proliferation-to-apoptosis ratio (Ki67 / TUNEL), MDA-MB-231 tumors; settings: MDA-MB-231 cells treated prior to injection into mouse
Source text: (§1) (A) In vivo tumor formation in a mouse injected with MDA-MB-231 cells pre-exposed for 3 days to either a control matrix (Matrigel) or a matrix conditioned by hESCs (H9 CMTX) (n=10) (B) C81-61 cells, transfected with either an empty vector or a Nodal expression construct (n=5), and (C) MDA-MB-231 cells treated with either MO^Control or MO^Nodal (n=10). […] (D) The ratio of tumor cell proliferation to apoptosis for C8161 and MDA-MB-231 derived tumors, determined by immunohistochemical staining for Ki67 and terminal deoxynucleotidyl transferase biotin-dUTP nick-end labeling (TUNEL). Prior to injection into a mouse, C8161 and MDA-MB-231 cells were cultured for 3 days on control or hESC conditioned (H9 CMTX) matrices, or treated with MO^Nodal to knock down Nodal expression. […] (E) Immunohistochemical analysis of Ki67 expression (red/brown) and TUNEL staining in orthotopic melanoma (C8161) and breast carcinoma (MDA-MB-231) tumors. […] Proliferation is indicated by Ki67 staining and apoptotic nuclei were detected with confocal microscopy as red staining localized to the nuclei of apoptotic C8161 or MDA-MB-231 cells. […]
(§2) In order to establish a mechanism by which exposure to the hESC microenvironment abrogates tumorigenicity, the effects of this treatment on the in vivo tumor cell proliferation-to-apoptosis ratio were analyzed. […]

C8161 cells [3] = assay: Anchorage independent growth / soft agar colony formation, C8161; assay type: cell-based, human; settings: C8161 cells, soft agar, after 2 weeks
Method: An in vitro colony forming assay was used to analyze colony-forming ability of poorly aggressive C81-61 cells, aggressive C8161 cells, C8161 cells treated with MONodal and C8161 cells treated with MONodal and rescued with recombinant Nodal (100 ng/mL). The assay was conducted using 50,000 cells suspended in 0.35% agarose in RPMI containing 10% serum, which were plated into 6-well dishes on 0.5% agar in the same medium. Colonies grew, and pictures were taken at day 7. After 2 weeks, colonies were stained with Crystal Violet and counted.
Clonogenicity of cells are assessed as previously described. Hamburger, A. W., and Salmon, S. E., 1977, Science 197:461-463. Each parameter is tested in triplicate for clone formation in soft agar. Briefly, […] are plated in 60 mm Petri dishes in complete medium placed over the soft agar. On specific days after the cells are plated, phase contrast images of the colonies are taken using a Zeiss Axiovert 25 with an Hitachi HCV-20 color camera.
Anchorage independent growth assays were conducted as previously described. Topczewska et al., 2006, Nat. Med. 12: 925-932.

MDA-MB-231 cells = assay: In vitro proliferation assay (cell count), MDA-MB-231; assay type: cell-based, human; settings: MDA-MB-231, relative to MO Control; 4 days after plating 15,000 cells
[4] = tested on: C8161 human cutaneous melanoma cells; assay: In vivo tumor formation, C8161 cells injected subcutaneously into nude mice; design: species or system mouse; settings: 250,000 Morpholino-treated C8161 cells injected, vs control
Method: A microenvironment of human embryonic stem cells (H9 CMTX) was prepared as described above. C8161 human cutaneous melanoma cells were exposed to the H9 CMTX or Matrigel for 3 to 4 days prior to transplantation in a mouse model. Nude immunocompromised mice received an injection of the C8161 cells subcutaneously into the midscapular region (to mimic spontaneous metastatic dissemination found in human cancers). The animals were injected using a 25 or 27-gauge needle with 2.5×10^5 tumor cells/mouse in 0.05 ml RPMI media.
As a corollary to these findings, an orthotopic mouse model was used to examine the effect of Nodal inhibition on melanoma tumor formation. For the experimental tumourigenesis model, 5 week old nude mice (Harlan, Madison, Wis.) were injected subcutaneously with 250,000 C8161 cells, treated with control or anti-Nodal Morpholinos, in 50 μL of complete RPMI. Tumor measurements were taken on days 3, 7, 14 and 17 post-injection, and mice were sacrificed on day 17. For the orthotopic mouse tumor formation studies, statistical significance was determined using the Kruskal-Wallis One Way Analysis of Variance on Ranks, followed by Dunn's method. […]

[5] = tested on: MDA-MB-231 breast carcinoma cells; assay: In vivo tumor formation, MDA-MB-231 cells injected into the mammary fat pad; design: species or system mouse; settings: 500,000 Morpholino-treated MDA-MB-231 cells injected, vs control
Source text: The effects of the hESC microenvironment on the in vivo tumorigenicity of melanoma and breast carcinoma cells were examined using orthotopic mouse models. […] In order to further substantiate the role of Nodal in tumorigenicity, and to illuminate a potential mechanism for the tumor-suppressive properties of the hESC microenvironment, previously shown to diminish Nodal expression (FIG. 9), orthotopic mouse models were utilized to examine the effects of: (a) Ectopic Nodal expression on the tumorigenic potential of C81-61 cells (isogenetically matched non-tumorigenic variants of the metastatic C8161 melanoma cell line); and (b) Nodal inhibition on MDA-MB-231 breast carcinoma tumorigenicity. The control C81-61 melanoma cell line was unable to form palpable tumors when 500,000 cells were injected, and using gross observation and histology 5.5 weeks after inoculation, these tumor cells could not be detected at the site of injection. In contrast, 100% of C81-61 cells transfected with a Nodal expression vector formed palpable tumors within 3.5 weeks of injection (FIG. 13B).
5 week old mice were injected subcutaneously with 250,000 C8161 or 500,000 C81-61 human cutaneous melanoma cells in 50 μL of complete RPMI; or 500,000 MDA-MB-231 cells in 50 μL of complete RPMI were injected into the mammary fat pad of 8 week old mice. When tumors became palpable measurements were taken twice per week.

C8161 melanoma cells = assay: In vivo tumor cell proliferation-to-apoptosis ratio (Ki67 / TUNEL), C8161 tumors; settings: C8161 cells treated prior to injection into mouse
Source text: as §1, §2

Substance: MO^Nodal: antisense Morpholino to Nodal, 5′-AAGCAGCACCTCCAGCCCTTATATC-3′ (SEQ ID NO: 20) (all phosphorodiamidate morpholino (PMO); further chemistry not fully specified)
- in vitro cell proliferation (C8161 cells [1]): reduced proliferation
- ratio of proliferation to apoptosis [2]: decreased
- reduction of colony formation (C8161 cells [3]): 57%
- in vitro cell proliferation (MDA-MB-231 cells): reduced proliferation
- diminution of tumor incidence [4]: 30%
- tumorigenicity [4]: significant reduction
- tumorigenicity [5]: significant reduction
- ratio of proliferation to apoptosis (C8161 melanoma cells): decreased
